# In US20250179047A1, “5-[7-(3,4-DIHYDRO-1H-ISOQUINOLINE-2-CARBONYL)-1,2,3,4 TETRAHYDROISOQUINOLIN-6-YL]-1H-PYRROLE-3-CARBOXAMIDE DERIVATIVES, PHARMACEUTICAL COMPOSITIONS CONTAINING THEM AND THEIR USES AS PRO-APOPTOTIC AGENTS” (LES LABORATOIRES SERVIER, priority 2022, published 2025):
# What was measured:
# KMS-12-PE Bcl-2 G101V = assay: In vitro cytotoxicity CellTiter-Glo 48 h, KMS-12-PE Bcl-2 G101V; assay type: cell-based; conditions: for Ratio (G101V/WT): C50 KMS-12-PE Bcl-2 G101V over C50 KMS-12-PE Bcl-2 WT; for IC50: 48 h, CellTiter-Glo, C50 = concentration needed to reach 50% of the cellular viability
# In short: (§1)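 Bcl-2 WT- and G101V-expressing KMS-12-PE cells; 48 h treatment at 37 °C, 5% CO2; CellTiter-Glo ATP luminescence; C50 from 11-point curves.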
# BCLXL WT = BCLXL WT (Homo sapiens (Human), UniProt Q07817); assay: TR-FRET competitive binding assay, BCLXL WT; conditions: for Ki: BCLXL WT, Ki determined from IC50, read-out: TR_FRET EKI BclxL; for TR_FRET EKI BCLxL/WT selectivty ratio: ratio Ki BCLxL / Ki BCL2 WT
# In short: (§2)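 Ki derived from IC50 (11-point dilution, 520/495 nm emission ratio) for displacing a fluorescein-labelled PUMA peptide (2 or 20 nM). Target was 0.5 nM E. coli-expressed Halo-tagged BCL2 (1-207) or BCLXL (2-196), terbium-labelled on Halo. Incubation 2 h at 23°C in pH 7.5 Hepes with 150 mM NaCl and 5% DMSO.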
# BCL2 WT = BCL2 WT (Homo sapiens (Human), UniProt P10415); assay: TR-FRET competitive binding assay, BCL2 WT; conditions: Ki determined from IC50, read-out: TR_FRET EKI_Bcl2 WT
# In short: as §2
# BCL2 D103Y = BCL2 D103Y (Homo sapiens, UniProt P10415, D103Y); assay: TR-FRET competitive binding assay, BCL2 D103Y; conditions: Ki determined from IC50, read-out: TR_FRET EKI_Bcl2 D103Y
# In short: as §2
# KMS-12-PE Bcl-2 WT = assay: In vitro cytotoxicity CellTiter-Glo 48 h, KMS-12-PE Bcl-2 WT; assay type: cell-based; conditions: C50 = concentration needed to reach 50% of the cellular viability
# In short: as §1
# BCL2 G101V [1] = assay: TR-FRET competitive binding assay, BCL2 G101V; parameters: species or system human; conditions: ratio Ki BCL2 G101V / Ki BCL2 WT
# In short: as §2
# BCL2 G101V [2] = biological target: BCL2 G101V (Homo sapiens, UniProt P10415, G101V); assay: TR-FRET competitive binding assay, BCL2 G101V; conditions: BCL2 G101V; Ki determined from IC50; read-out: TR_FRET EKI_Bcl2 G101V
# In short: as §2
# Sequence of BCLXL WT (Q07817 other isoform, or with tags, fused parts or gaps): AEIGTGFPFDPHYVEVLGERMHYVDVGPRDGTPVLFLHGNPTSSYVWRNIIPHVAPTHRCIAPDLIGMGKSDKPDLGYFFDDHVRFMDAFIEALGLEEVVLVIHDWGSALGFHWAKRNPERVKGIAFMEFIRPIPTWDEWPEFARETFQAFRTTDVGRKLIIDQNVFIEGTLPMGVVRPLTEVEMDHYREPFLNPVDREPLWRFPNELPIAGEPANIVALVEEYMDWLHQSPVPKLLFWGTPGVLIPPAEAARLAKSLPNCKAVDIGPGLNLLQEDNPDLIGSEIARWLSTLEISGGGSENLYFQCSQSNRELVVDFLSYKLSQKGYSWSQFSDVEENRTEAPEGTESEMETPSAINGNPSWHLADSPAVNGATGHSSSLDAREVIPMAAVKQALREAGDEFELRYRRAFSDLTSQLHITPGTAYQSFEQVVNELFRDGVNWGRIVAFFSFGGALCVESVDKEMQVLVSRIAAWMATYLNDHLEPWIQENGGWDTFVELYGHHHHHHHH
Compound,Ratio (G101V/WT) (KMS-12-PE Bcl-2 G101V),"IC50 (KMS-12-PE Bcl-2 G101V; Homo sapiens, KMS-12-PE)",Ki (BCLXL WT),TR_FRET EKI BCLxL/WT selectivty ratio (BCLXL WT),Ki (BCL2 WT),Ki (BCL2 D103Y),"IC50 (KMS-12-PE Bcl-2 WT; Homo sapiens, KMS-12-PE)",TR_FRET EKI G101V/WT selectivty ratio (BCL2 G101V [1]),Ki (BCL2 G101V [2]),IC50 (KMS-12-PE Bcl-2 G101V),IC50 (KMS-12-PE Bcl-2 WT)
"Cc1c(N(C(=O)c2cc(-c3cc4c(cc3C(=O)N3Cc5ccccc5C[C@H]3CN3CCCCC3)CN(C(=O)Cc3ccc(OCCC5COCCO5)cc3F)CC4)n(C)c2C)c2ccc(O)cc2)cc(C#N)n1C (single isomer, unassigned) [Example 174, N-(5-cyano-1,2-dimethyl-pyrrol-3-yl)-5-[2-[2-[4-[2-((2S or R)-1,4-dioxan-2-yl)ethoxy]-2-fluoro-phenyl]acetyl]-7-[(3S)-3-(1-piperidylmethyl)-3,4-dihydro-1H-isoquinoline-2-carbonyl]-3,4-dihydro-1H-isoquinolin-6-yl]-N-(4-hydroxyphenyl)-1,2-dimethyl-pyrrole-3-carboxamide]",5.6751,0.0248 µM,2.6 nM,38.8,0.07 nM,0.3 nM,0.0044 µM,7.8,0.5 nM,,
"Cc1c(N(C(=O)c2cc(-c3cc4c(cc3C(=O)N3Cc5ccccc5C[C@H]3CN3CCCCC3)CN(C(=O)Cc3ccc(OCCC5COCCO5)cc3F)CC4)n(C)c2C)c2ccc(O)cc2)cc(C#N)n1C (single isomer, unassigned) [Example 175, N-(5-cyano-1,2-dimethyl-pyrrol-3-yl)-5-[2-[2-[4-[2-((2R or S)-1,4-dioxan-2-yl)ethoxy]-2-fluoro-phenyl]acetyl]-7-[(3S)-3-(1-piperidylmethyl)-3,4-dihydro-1H-isoquinoline-2-carbonyl]-3,4-dihydro-1H-isoquinolin-6-yl]-N-(4-hydroxyphenyl)-1,2-dimethyl-pyrrole-3-carboxamide]",6.335,,3.1 nM,40.8,0.08 nM,0.34 nM,,7.0,0.5 nM,0.0261 µM,0.0041 µM
"Cc1c(N(C(=O)c2cc(-c3cc4c(cc3C(=O)N3Cc5ccccc5C[C@H]3C)CN(C(=O)Cc3ccc(Oc5ccccc5)cc3)CC4)n(C)c2C)c2ccc(O)cc2)cc(C#N)n1C [Example 10, N-(5-cyano-1,2-dimethyl-1H-pyrrol-3-yl)-N-(4-hydroxyphenyl)-1,2-dimethyl-5-{7-[(3R)-3-methyl-1,2,3,4-tetrahydroisoquinoline-2-carbonyl]-2-[2-(4-phenoxyphenyl)acetyl]-1,2,3,4-tetrahydroisoquinolin-6-yl}-1H-pyrrole-3-carboxamide]",4.58,0.0641 µM,31.2 nM,14.2,2.2 nM,2.98 nM,0.014 µM,2.6,5.7 nM,,
"Cc1c(N(C(=O)c2cc(-c3cc4c(cc3C(=O)N3Cc5ccccc5C[C@H]3C)CN(C(=O)Cc3ccc(F)cc3F)CC4)n(C)c2C)c2ccc(O)cc2)cc(C#N)n1C [Example 11, N-(5-cyano-1,2-dimethyl-1H-pyrrol-3-yl)-5-{2-[2-(2,4-difluorophenyl)acetyl]-7-[(3R)-3-methyl-1,2,3,4-tetrahydroisoquinoline-2-carbonyl]-1,2,3,4-tetrahydroisoquinolin-6-yl}-N-(4-hydroxyphenyl)-1,2-dimethyl-1H-pyrrole-3-carboxamide]",7.05,0.0249 µM,4.8 nM,14.1,0.34 nM,0.55 nM,0.0035 µM,3.8,1.3 nM,,
"Cc1c(N(C(=O)c2cc(-c3cc4c(cc3C(=O)N3Cc5ccccc5C[C@H]3C)CN(C(=O)Cc3ccccc3)CC4)n(C)c2C)c2ccc(O)cc2F)cc(C#N)n1C [Example 13, N-(5-cyano-1,2-dimethyl-1H-pyrrol-3-yl)-N-(2-fluoro-4-hydroxyphenyl)-1,2-dimethyl-5-{7-[(3R)-3-methyl-1,2,3,4-tetrahydroisoquinoline-2-carbonyl]-2-(2-phenylacetyl)-1,2,3,4-tetrahydroisoquinolin-6-yl}-1H-pyrrole-3-carboxamide]",5.37,0.0704 µM,4.6 nM,4.6,1 nM,2.35 nM,0.0131 µM,2.0,2 nM,,
"Cc1c(N(C(=O)c2cc(-c3cc4c(cc3C(=O)N3Cc5ccccc5C[C@H]3C)CN(C(=O)c3n[nH]c5ccccc35)CC4)n(C)c2C)c2ccc(O)cc2)cc(C#N)n1C [Example 15, N-(5-cyano-1,2-dimethyl-1H-pyrrol-3-yl)-N-(4-hydroxyphenyl)-5-[2-(1H-indazole-3-carbonyl)-7-[(3R)-3-methyl-1,2,3,4-tetrahydroisoquinoline-2-carbonyl]-1,2,3,4-tetrahydroisoquinolin-6-yl]-1,2-dimethyl-1H-pyrrole-3-carboxamide]",4.3,0.0714 µM,8.4 nM,12.5,0.67 nM,3.01 nM,0.0166 µM,9.1,6.1 nM,,
"Cc1c(N(C(=O)c2cc(-c3cc4c(cc3C(=O)N3Cc5ccccc5C[C@H]3C)CN(C(=O)Cc3ccc(Cl)cc3F)CC4)n(C)c2C)c2ccc(O)cc2)cc(C#N)n1C [Example 19, 5-{2-[2-(4-chloro-2-fluorophenyl)acetyl]-7-[(3R)-3-methyl-1,2,3,4-tetrahydroisoquinoline-2-carbonyl]-1,2,3,4-tetrahydroisoquinolin-6-yl}-N-(5-cyano-1,2-dimethyl-1H-pyrrol-3-yl)-N-(4-hydroxyphenyl)-1,2-dimethyl-1H-pyrrole-3-carboxamide]",6.91,0.0423 µM,7.4 nM,18.5,0.4 nM,0.97 nM,0.0061 µM,4.8,1.9 nM,,
"Cc1c(N(C(=O)c2cc(-c3cc4c(cc3C(=O)N3Cc5ccccc5C[C@H]3C)CN(C(=O)C3Cc5ccccc5O3)CC4)n(C)c2C)c2ccc(O)cc2)cc(C#N)n1C (stereo partly drawn) [Example 20, N-(5-cyano-1,2-dimethylpyrrol-3-yl)-5-{2-[(2,3-dihydro-1-benzofuran-2-yl)carbonyl]-7-{[(3R)-3-methyl-3,4-dihydro-1H-isoquinolin-2-yl]carbonyl}-3,4-dihydro-1H-isoquinolin-6-yl}-N-(4-hydroxyphenyl)-1,2-dimethylpyrrole-3-carboxamide]",6.74,0.0681 µM,6.6 nM,12.5,0.53 nM,0.68 nM,0.0101 µM,5.0,2.7 nM,,
"Cc1c(C(=O)N(c2ccc(O)cc2)c2cc(C#N)n(CCN(C)C3CC3)c2C)cc(-c2cc3c(cc2C(=O)N2Cc4ccccc4C[C@H]2C)CN(C(=O)Cc2ccccc2)CC3)n1C [Example 22, N-[5-cyano-1-[2-[cyclopropyl(methyl)amino]ethyl]-2-methyl-pyrrol-3-yl]-N-(4-hydroxyphenyl)-1,2-dimethyl-5-[7-[(3R)-3-methyl-3,4-dihydro-1H-isoquinoline-2-carbonyl]-2-(2-phenylacetyl)-3,4-dihydro-1H-isoquinolin-6-yl]pyrrole-3-carboxamide]",8.47,0.0864 µM,2.3 nM,11.5,0.2 nM,0.82 nM,0.0102 µM,5.0,1 nM,,
"Cc1c(N(C(=O)c2cc(-c3cc4c(cc3C(=O)N3Cc5ccccc5C[C@H]3C)CN(C(=O)Cc3ccc(Br)cc3F)CC4)n(C)c2C)c2ccc(O)cc2)cc(C#N)n1C [Example 24, 5-{2-[2-(4-bromo-2-fluorophenyl)acetyl]-7-[(3R)-3-methyl-1,2,3,4-tetrahydroisoquinoline-2-carbonyl]-1,2,3,4-tetrahydroisoquinolin-6-yl}-N-(5-cyano-1,2-dimethyl-1H-pyrrol-3-yl)-N-(4-hydroxyphenyl)-1,2-dimethyl-1H-pyrrole-3-carboxamide]",7.19,0.0423 µM,6.1 nM,11.5,0.53 nM,1.02 nM,0.0059 µM,3.4,1.8 nM,,
